Tested on: kokumi and/or umami taste
Experiment: Sensory test: taste threshold in model broth (duo-trio test, sensory panel)
Type: in vivo
Conditions: for taste quality with the savoury taste threshold in model broth: descriptor in brackets after the threshold value; for minimal effective concentration: duo-trio-test ISO 10399:2017, model broth as constant blank, successive 1:2 dilutions in model broth, panel value averaged over three sessions, read-out: savoury taste threshold in model broth
Source text: This sensory test allowed evaluating the capacity of the compounds of formula (IA), (IB), (IC), (ID), (IE), (IF), (IG), (IH) and (IJ) as defined above to enhance taste; particularly kokumi and/or umami taste. This test allowed measuring the taste threshold of the mixtures comprising an amount from 86% to 99% by weight measured by quantitative proton-NMR of a compound of formula (IA), (IB), (IC), (ID), (IE), (IF), (IG), (IH) and (IJ) in model broth. The “taste threshold” refers to the minimum taste stimulus needed to detect the presence of a compound of formula (IA), (IB), (IC), (ID), (IE), (IF), (IG), (IH) and (IJ) of the present invention. The lower the taste threshold, the greater the capacity as enhancer; particularly greater the capacity as kokumi and/or umami enhancer.
Samples • Diluted samples of the mixtures comprising a compound of formula (IA), (IB), (IC), (ID), (IE), (IF), (IG) and (IJ) in an amount from 86% to 99% by weight measured by quantitative proton-NMR with model broth. • Model broth as constant […]. • Diluted samples of comparative samples with model broth: • Comparative compound 1: 5-(aminomethyl)-2-methylpyrimidin-4-amine (Berkshire, United Kingdom) • Comparative compound 2: (4-amino-2-methylpyrimidin-5-yl)methanol (Carbosynth-Berkshire, United Kingdom) • Comparative compound 3: Thiamine (Sigma-Aldrich, Steinheim, Germany)
Model broth: The model broth comprises the following composition: 1.9 g/L of sodium Sodium chloride (Sigma Aldrich, Steinheim, Germany); 1.9 g/L of mono sodium L-glutatmate (Merck, Darmastadt, Germany); 6.4 g/L of Maltodextrin (Sigma Aldrich, Steinheim, Germany); and 2.1 g/L yeast extract (Gistex GSX II, DSM Food specialities Savoury Ingredients; Delft, Netherlands). The model broth is prepared by mixing the ingrediets under agitation in an ultrasonic bath.
Diluted samples of the mixtures comprising a compound of formula (IA), (IB), (IC), (ID), (IE), (IF), (IG), (IH) and (IJ) in an amount from 86% to 99% by weight measured by quantitative proton-NMR of the present invention: The pH value of each individual mixture comprising an amount from 86% to 99% by weight measured by quantitative proton-NMR of a compound of formula (IA), (IB), (IC), (ID), (IE), (IF), (IG), (IH) and (IJ) was adjusted to 5.4 by the addition of the appropriate amount of formic acid. Each individual pH adjusted mixture thus obtained was diluted 1:2 successively with the model broth to obtain diluted solutions of the mixture comprising a compound of formula formula (IA), (IB), (IC), (ID), (IE), (IF), (IG), (IH) and (IJ) in a concentration from 10 μmol/L to 1000 μmol/L measured by quantitative proton-NMR.
Diluted samples of the comparative compounds 1-3. A mixture of each individual comparative compound 1-3 with model broth was prepared by successively dilution 1:2 of each individual comparative compound with model broth to obtain the diluted comparative solutions having a concentration from 10 μmol/L to 1000 μmol/L measured by quantitative proton-NMR of the comparative compound.
The diluted solutions of the present invention and the comparative solutions falling outside the scope of protection of the present invention obtained above were presented to the panelists with increasing concentrations of the tested solutions by means of the duo-trio-test according to ISO 10399:2017; using the model broth as constant blank. The panelists were asked to mark the differing samples.
The taste threshold is calculated by means of the geometric mean. The geometric mean of the last and the second last concentration was calculated and taken as the individual threshold. The threshold value of the sensory panel was approximated by averaging the threshold values of the individuals in three independent sessions. Values between individuals and separate sessions differed not more than two dilution steps (cf. Lawless, Harry T. “Sensory Evaluation of Food”. Springer, 2nd edition, 2010, pp. 125-145)

Row | SMILES | taste quality with the savoury taste threshold in model broth | minimal effective concentration [µM]
1 | Cc1ncc(CSC[C@H](N)C(=O)O)c(N)n1 (single isomer, unassigned) [Mixture comprising (IA), S-((4-amino-2-methylpyrimidin-5-yl)methyl)-L-cysteine] | kokumi | 120
2 | Cc1ncc(CSc2ccoc2C)c(N)n1 (single isomer, unassigned) [Mixture comprising (IF), 2-methyl-5-(((2-methylfuran-3-yl)thio)methyl)pyrimidin-4-amine] | kokumi | 50
3 | Cc1ncc(CSCC(N)C(=O)NCC(=O)O)c(N)n1 (single isomer, unassigned) [Mixture comprising (IC), S-((4-amino-2-methylpyrimidin-5-yl)methyl)cysteinylglycine] | kokumi | 880
4 | Cc1ncc(C[n+]2csc(CCO)c2C)c(N)n1 [Comparative compound 3, Thiamine, reference compound] |  | 1200
5 | CCC(SCc1cnc(C)nc1N)C(C)=O (single isomer, unassigned) [Mixture comprising (IE), 3-(((4-amino-2-methylpyrimidin-5-yl)methyl)thio)pentan-2-one] | kokumi | 35
6 | Cc1ncc(CO)c(N)n1 [Comparative compound 2, (4-amino-2-methylpyrimidin-5-yl)methanol, reference compound] | kokumi | 700
7 | Cc1ncc(CSCC2NC(=O)CNC2=O)c(N)n1 (single isomer, unassigned) [Mixture comprising (ID), 3-((((4-amino-2-methylpyrimidin-5-yl)methyl)thio)methyl)piperazine-2,5-dione] | kokumi | 255
8 | Cc1ncc(CSCc2ccco2)c(N)n1 (single isomer, unassigned) [Mixture comprising (IG), 5-(((furan-2-ylmethyl)thio)methyl)-2-methylpyrimidin-4-amine] | kokumi | 120
9 | CC(=O)C(CCO)SCc1cnc(C)nc1N (single isomer, unassigned) [Mixture comprising (IB), 3-(((4-amino-2-methylpyrimidin-5-yl)methyl)thio)-5-hydroxy-pentan-2-one] | kokumi | 40
10 | Cc1ncc(CN)c(N)n1 [Comparative compound 1, 5-(aminomethyl)-2-methylpyrimidin-4-amine, reference compound] |  | > 1100
11 | CSCc1cnc(C)nc1N (single isomer, unassigned) [Mixture comprising (IH), 2-methyl-5-((methylthio)methyl)pyrimidin-4-amine] | kokumi | 70
12 | Cc1ncc(CS)c(N)n1 (single isomer, unassigned) [Mixture comprising (IJ), (4-amino-2-methylpyrimidin-5-yl)methanethiol] | kokumi | 80
